From US6737383B1, “Herbicidal oxadiazolidines” (priority 1999, dated 2004)

Key:
rape = assay: Test B pre/postemergence rape; format: in vivo, Brassica napus
How it was run: (§1)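 Test chemicals in a non-phytotoxic solvent mixture with surfactant were sprayed preemergence onto planted seeds and postemergence onto plants 2 to 18 cm tall (1- to 4-leaf stage). After twelve to sixteen days in a greenhouse, injury was visually rated against untreated controls from 0 (no effect) to 10 (complete control).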

wild oat = assay: Test B pre/postemergence wild oat; format: in vivo, Avena fatua
How it was run: as §1

wheat = assay: Test B pre/postemergence wheat; format: in vivo, Triticum aestivum
How it was run: as §1

bedstraw = assay: Test B pre/postemergence bedstraw; format: in vivo, Galium aparine
How it was run: as §1

blackgrass = assay: Test B pre/postemergence blackgrass; format: in vivo, Alopecurus myosuroides
How it was run: as §1

surinam grass = assay: Test B pre/postemergence surinam grass; format: in vivo, Brachiaria decumbens
How it was run: as §1

soybean = assay: Test B pre/postemergence soybean; format: in vivo, Glycine max
How it was run: as §1

morningglory = assay: Test B pre/postemergence morningglory; format: in vivo, Ipomoea hederacea
How it was run: as §1

crabgrass = assay: Test B pre/postemergence crabgrass; format: in vivo, Digitaria sanguinalis
How it was run: as §1

sugar beet = assay: Test B pre/postemergence sugar beet; format: in vivo, Beta vulgaris
How it was run: as §1

corn = assay: Test B pre/postemergence corn; format: in vivo, Zea mays
How it was run: as §1

velvetleaf = assay: Test B pre/postemergence velvetleaf; format: in vivo, Abutilon theophrasti
How it was run: as §1

cocklebur = assay: Test B pre/postemergence cocklebur; format: in vivo, Xanthium strumarium
How it was run: as §1

purple nutsedge = assay: Test B pre/postemergence purple nutsedge; format: in vivo, Cyperus rotundus
How it was run: as §1

pigweed = assay: Test B pre/postemergence pigweed; format: in vivo, Amaranthus retroflexus
How it was run: as §1

giant foxtail = assay: Test B pre/postemergence giant foxtail; format: in vivo, Setaria faberii
How it was run: as §1

[1] = Postemergence, Rate 62 g/ha, scale 0 to 10, 0 is no effect, 10 is complete control
[2] = Postemergence, Rate 125 g/ha, scale of 0 to 10 where 0 is no effect and 10 is complete control
[3] = Postemergence, Rate 500 g/ha, scale of 0 to 10 where 0 is no effect and 10 is complete control
[4] = Preemergence, Rate 62 g/ha, scale of 0 to 10 where 0 is no effect and 10 is complete control
[5] = Preemergence, Rate 125 g/ha, scale of 0 to 10 where 0 is no effect and 10 is complete control
[6] = Preemergence, Rate 250 g/ha, scale 0 to 10 (0 no effect, 10 complete control)
[7] = Preemergence, Rate 500 g/ha, scale of 0 to 10 where 0 is no effect and 10 is complete control
[8] = Postemergence, Rate 250 g/ha, scale of 0 to 10, 0 is no effect, 10 is complete control

C=C(Cn1c(=O)on(C(=O)N(c2ccccc2)C(C)C)c1=O)C(C)(C)C [Compound 648]
Plant response rating, Rape (rape; [1]): 0
Rape plant response rating (rape; [2]): 0
Plant response rating, Rape (rape; [3]): 2
Rape plant response rating (rape; [4]): 0
Rape plant response rating (rape; [5]): 0
Plant response rating, Rape (rape; [6]): 0
Plant response rating, Rape (rape; [7]): 0
Plant response rating, Wild oats (wild oat; [1]): 0
Wild oats plant response rating (wild oat; [2]): 0
Wild oats plant response rating (wild oat; [4]): 0
Wild oats plant response rating (wild oat; [5]): 0
Plant response rating, Wild oats (wild oat; [6]): 0
Plant response rating, Wild oats (wild oat; [7]): 0
Plant response rating, Wheat (wheat; [1]): 0
Wheat plant response rating (wheat; [2]): 0
Wheat plant response rating (wheat; [4]): 0
Wheat plant response rating (wheat; [5]): 0
Plant response rating, Wheat (wheat; [6]): 0
Plant response rating, Wheat (wheat; [7]): 0
Bedstraw plant response rating (bedstraw; [2]): 0
Bedstraw plant response rating (bedstraw; [4]): 0
Bedstraw plant response rating (bedstraw; [5]): 0
Plant response rating, Bedstraw (bedstraw; [6]): 0
Plant response rating, Bedstraw (bedstraw; [7]): 0
Plant response rating, Blackgrass (blackgrass; [1]): 0
Blackgrass plant response rating (blackgrass; [2]): 0
Blackgrass plant response rating (blackgrass; [8]): 0
Plant response rating, Blackgrass (blackgrass; [3]): 0
Blackgrass plant response rating (blackgrass; [4]): 0
Blackgrass plant response rating (blackgrass; [5]): 0
Plant response rating, Blackgrass (blackgrass; [6]): 2
Plant response rating, Blackgrass (blackgrass; [7]): 5
Plant response rating, B. signalgrass (surinam grass; [1]): 0
Plant response rating, B. signalgrass (surinam grass; [2]): 0
B. signalgrass plant response rating (surinam grass; [8]): 0
Plant response rating, B. signalgrass (surinam grass; [3]): 0
B. signalgrass plant response rating (surinam grass; [4]): 0
B. signalgrass plant response rating (surinam grass; [5]): 0
Plant response rating, B. signalgrass (surinam grass; [6]): 0
Plant response rating, B. signalgrass (surinam grass; [7]): 5
Plant response rating, Soybean (soybean; [1]): 0
Soybean plant response rating (soybean; [2]): 2
Soybean plant response rating (soybean; [4]): 0
Soybean plant response rating (soybean; [5]): 0
Plant response rating, Soybean (soybean; [6]): 0
Plant response rating, Soybean (soybean; [7]): 0
Plant response rating, Morningglory (morningglory; [1]): 6
Morningglory plant response rating (morningglory; [2]): 10
Morningglory plant response rating (morningglory; [8]): 10
Plant response rating, Morningglory (morningglory; [3]): 10
Morningglory plant response rating (morningglory; [4]): 0
Morningglory plant response rating (morningglory; [5]): 0
Plant response rating, Morningglory (morningglory; [6]): 0
Plant response rating, Morningglory (morningglory; [7]): 0
Plant response rating, Crabgrass (crabgrass; [1]): 0
Crabgrass plant response rating (crabgrass; [2]): 0
Crabgrass plant response rating (crabgrass; [8]): 0
Plant response rating, Crabgrass (crabgrass; [3]): 7
Crabgrass plant response rating (crabgrass; [4]): 0
Crabgrass plant response rating (crabgrass; [5]): 8
Plant response rating, Crabgrass (crabgrass; [6]): 9
Plant response rating, Crabgrass (crabgrass; [7]): 9
Plant response rating, Sugarbeets (sugar beet; [1]): 0
Sugarbeets plant response rating (sugar beet; [2]): 0
Sugarbeets plant response rating (sugar beet; [4]): 0
Sugarbeets plant response rating (sugar beet; [5]): 0
Plant response rating, Sugarbeets (sugar beet; [6]): 0
Plant response rating, Sugarbeets (sugar beet; [7]): 0
Plant response rating, Corn (corn; [1]): 0
Corn plant response rating (corn; [2]): 0
Corn plant response rating (corn; [8]): 0
Plant response rating, Corn (corn; [3]): 0
Corn plant response rating (corn; [4]): 0
Corn plant response rating (corn; [5]): 0
Plant response rating, Corn (corn; [6]): 0
Plant response rating, Corn (corn; [7]): 0
Plant response rating, Velvetleaf (velvetleaf; [1]): 0
Velvetleaf plant response rating (velvetleaf; [2]): 0
Velvetleaf plant response rating (velvetleaf; [4]): 0
Velvetleaf plant response rating (velvetleaf; [5]): 0
Plant response rating, Velvetleaf (velvetleaf; [6]): 0
Plant response rating, Velvetleaf (velvetleaf; [7]): 0
Plant response rating, Cocklebur (cocklebur; [1]): 0
Cocklebur plant response rating (cocklebur; [2]): 0
Cocklebur plant response rating (cocklebur; [8]): 0
Plant response rating, Cocklebur (cocklebur; [3]): 2
Cocklebur plant response rating (cocklebur; [4]): 0
Cocklebur plant response rating (cocklebur; [5]): 0
Plant response rating, Cocklebur (cocklebur; [7]): 0
Plant response rating, Nutsedge (purple nutsedge; [1]): 0
Nutsedge plant response rating (purple nutsedge; [2]): 0
Plant response rating, Nutsedge (purple nutsedge; [3]): 0
Nutsedge plant response rating (purple nutsedge; [4]): 0
Nutsedge plant response rating (purple nutsedge; [5]): 0
Plant response rating, Nutsedge (purple nutsedge; [6]): 0
Plant response rating, Nutsedge (purple nutsedge; [7]): 0
Plant response rating, Redroot pigweed (pigweed; [1]): 0
Redroot pigweed plant response rating (pigweed; [2]): 3
Redroot pigweed plant response rating (pigweed; [4]): 0
Redroot pigweed plant response rating (pigweed; [5]): 0
Plant response rating, Redroot pigweed (pigweed; [6]): 0
Plant response rating, Redroot pigweed (pigweed; [7]): 2
Plant response rating, Giant foxtail (giant foxtail; [1]): 0
Giant foxtail plant response rating (giant foxtail; [2]): 0
Giant foxtail plant response rating (giant foxtail; [8]): 0
Plant response rating, Giant foxtail (giant foxtail; [3]): 3
Giant foxtail plant response rating (giant foxtail; [4]): 5
Giant foxtail plant response rating (giant foxtail; [5]): 9
Plant response rating, Giant foxtail (giant foxtail; [6]): 9
Plant response rating, Giant foxtail (giant foxtail; [7]): 9

CCn1ncc(Cn2c(=O)on(C(=O)N(c3ccc(Cl)cc3)C(C)C)c2=O)c1Cl [Compound 684]
Rape plant response rating (rape; [4]): 0
Plant response rating, Rape (rape; [5]): 0
Wild oats plant response rating (wild oat; [4]): 0
Plant response rating, Wild oats (wild oat; [5]): 0
Wheat plant response rating (wheat; [4]): 0
Plant response rating, Wheat (wheat; [5]): 0
Bedstraw plant response rating (bedstraw; [4]): 0
Plant response rating, Bedstraw (bedstraw; [5]): 0
Plant response rating, Bedstraw (bedstraw; [6]): 0
Plant response rating, Bedstraw (bedstraw; [7]): 0
Blackgrass plant response rating (blackgrass; [4]): 1
Plant response rating, Blackgrass (blackgrass; [5]): 3
Plant response rating, Blackgrass (blackgrass; [6]): 4
Plant response rating, Blackgrass (blackgrass; [7]): 7
B. signalgrass plant response rating (surinam grass; [4]): 0
Plant response rating, B. signalgrass (surinam grass; [5]): 0
Plant response rating, B. signalgrass (surinam grass; [6]): 4
Plant response rating, B. signalgrass (surinam grass; [7]): 5
Soybean plant response rating (soybean; [4]): 0
Plant response rating, Soybean (soybean; [5]): 0
Morningglory plant response rating (morningglory; [4]): 0
Plant response rating, Morningglory (morningglory; [5]): 0
Crabgrass plant response rating (crabgrass; [4]): 3
Plant response rating, Crabgrass (crabgrass; [5]): 7
Plant response rating, Crabgrass (crabgrass; [6]): 9
Sugarbeets plant response rating (sugar beet; [4]): 0
Plant response rating, Sugarbeets (sugar beet; [5]): 0
Corn plant response rating (corn; [4]): 0
Plant response rating, Corn (corn; [5]): 0
Plant response rating, Corn (corn; [6]): 0
Velvetleaf plant response rating (velvetleaf; [4]): 0
Plant response rating, Velvetleaf (velvetleaf; [5]): 0
Cocklebur plant response rating (cocklebur; [4]): 0
Plant response rating, Cocklebur (cocklebur; [5]): 0
Plant response rating, Cocklebur (cocklebur; [6]): 0
Plant response rating, Cocklebur (cocklebur; [7]): 0
Nutsedge plant response rating (purple nutsedge; [4]): 0
Plant response rating, Nutsedge (purple nutsedge; [5]): 0
Redroot pigweed plant response rating (pigweed; [4]): 0
Plant response rating, Redroot pigweed (pigweed; [5]): 0
Giant foxtail plant response rating (giant foxtail; [4]): 7
Plant response rating, Giant foxtail (giant foxtail; [5]): 9

CCC(C)N(C(=O)n1oc(=O)n(C(C)C)c1=O)c1ccc(F)cc1 (centres unmarked) [Compound 689]
Rape plant response rating (rape; [4]): 0
Plant response rating, Rape (rape; [5]): 0
Wild oats plant response rating (wild oat; [4]): 7
Plant response rating, Wild oats (wild oat; [5]): 9
Wheat plant response rating (wheat; [4]): 0
Plant response rating, Wheat (wheat; [5]): 0
Bedstraw plant response rating (bedstraw; [4]): 0
Plant response rating, Bedstraw (bedstraw; [5]): 0
Plant response rating, Bedstraw (bedstraw; [6]): 7
Plant response rating, Bedstraw (bedstraw; [7]): 5
Blackgrass plant response rating (blackgrass; [4]): 9
Plant response rating, Blackgrass (blackgrass; [5]): 9
Plant response rating, Blackgrass (blackgrass; [6]): 10
Plant response rating, Blackgrass (blackgrass; [7]): 10
B. signalgrass plant response rating (surinam grass; [4]): 2
Plant response rating, B. signalgrass (surinam grass; [5]): 4
Plant response rating, B. signalgrass (surinam grass; [6]): 9
Plant response rating, B. signalgrass (surinam grass; [7]): 10
Soybean plant response rating (soybean; [4]): 0
Plant response rating, Soybean (soybean; [5]): 0
Morningglory plant response rating (morningglory; [4]): 0
Plant response rating, Morningglory (morningglory; [5]): 3
Crabgrass plant response rating (crabgrass; [4]): 9
Plant response rating, Crabgrass (crabgrass; [5]): 9
Plant response rating, Crabgrass (crabgrass; [6]): 10
Sugarbeets plant response rating (sugar beet; [4]): 0
Plant response rating, Sugarbeets (sugar beet; [5]): 2
Corn plant response rating (corn; [4]): 0
Plant response rating, Corn (corn; [5]): 6
Plant response rating, Corn (corn; [6]): 9
Velvetleaf plant response rating (velvetleaf; [4]): 2
Plant response rating, Velvetleaf (velvetleaf; [5]): 3
Cocklebur plant response rating (cocklebur; [4]): 0
Plant response rating, Cocklebur (cocklebur; [5]): 0
Plant response rating, Cocklebur (cocklebur; [6]): 0
Plant response rating, Cocklebur (cocklebur; [7]): 0
Nutsedge plant response rating (purple nutsedge; [4]): 0
Plant response rating, Nutsedge (purple nutsedge; [5]): 0
Redroot pigweed plant response rating (pigweed; [4]): 3
Plant response rating, Redroot pigweed (pigweed; [5]): 7
Giant foxtail plant response rating (giant foxtail; [4]): 10
Plant response rating, Giant foxtail (giant foxtail; [5]): 10
